What was measured:
[1] = HPLC stability of bendamustine in TBA 20% (v/v) with and without mannitol over 24 hours; format: physicochemical
Excerpt: FIGS. 3 and 4 show the amount of degradation of bendamustine as measured by HP1 and dimer formation quantified by HPLC (as described herein). HP1 and dimer formation increased as the amount of alcohol concentration decreased regardless of the alcohol. This increase in impurities occurred with an anticipated time dependence (see Tables 3-9).

## Cl.Cn1c(CCCC(=O)O)nc2cc(N(CCCl)CCCl)ccc21 [bendamustine, 4-{5-[Bis(2-chloroethyl)amino]-1-methyl-2-benzimidazolyl}butyric acid]
[1]; TBA 20% (v/v) with Mannitol, 0 hours, reverse phase HPLC
  Purity (% Area): 99.59 % Area
[1]; TBA 20% (v/v) with Mannitol, 24 hours @ 5° C., reverse phase HPLC
  Purity (% Area): 99.35 % Area
[1]; TBA 20% (v/v) without Mannitol, 0 hours, normal phase HPLC
  Purity (% Area): 100.0 % Area
[1]; TBA 20% (v/v) without Mannitol, 24 hours @ 5° C., normal phase HPLC
  Purity (% Area): 98.80 % Area
20% (v/v) TBA, 5° C.
  saturation limit: 17.2 mg/mL
30% TBA/water, 0° C.
  concentration of saturated solution: 18000 µg/mL

Reference: US8895756B2, “Bendamustine pharmaceutical compositions” (priority 2005, dated 2014)
